Where “and” joins values, the source holds several entries; their conditions need not be identical. Equal entries are not always repeated. Numbers after ± are expanded uncertainties.
Settings: Fluid (supercritical or subcritical phases), Buoyancy - hydrostatic balance with magnetic suspension - two sinkers

CCC [propane]
Settings	mass density
460 K, 1046.1 kPa	12.5822 ± 0.0038 kg/m3
460 K, 1046.4 kPa	12.585 ± 0.0038 kg/m3
460 K, 1046.5 kPa	12.5879 ± 0.0038 kg/m3
460 K, 1830.3 kPa	22.7747 ± 0.02 kg/m3
460 K, 1830.7 kPa	22.7788 ± 0.02 kg/m3 and 22.7791 ± 0.02 kg/m3
460 K, 1830.9 kPa	22.7814 ± 0.02 kg/m3
460 K, 2892.4 kPa	37.7704 ± 0.022 kg/m3 and 37.7706 ± 0.022 kg/m3
460 K, 2892.5 kPa	37.7721 ± 0.022 kg/m3 and 37.7722 ± 0.022 kg/m3
460 K, 2892.6 kPa	37.7743 ± 0.022 kg/m3
460 K, 4123 kPa	57.2169 ± 0.025 kg/m3
460 K, 4123.1 kPa	57.2175 ± 0.025 kg/m3
460 K, 4123.4 kPa	57.2232 ± 0.025 kg/m3
460 K, 4123.6 kPa	57.2271 ± 0.025 kg/m3
460 K, 4123.8 kPa	57.2284 ± 0.025 kg/m3
460 K, 4978.5 kPa	72.26 ± 0.012 kg/m3
460 K, 4978.6 kPa	72.2622 ± 0.012 kg/m3
460 K, 6345.6 kPa	99.2922 ± 0.016 kg/m3 [middle of 4 runs]
460 K, 8445 kPa	147.718 ± 0.022 kg/m3 and 147.719 ± 0.022 kg/m3 and 147.717 ± 0.022 kg/m3
460 K, 8445.1 kPa	147.721 ± 0.022 kg/m3
460 K, 8731.7 kPa	154.767 ± 0.037 kg/m3
460 K, 8731.9 kPa	154.768 ± 0.037 kg/m3
460 K, 8732 kPa	154.77 ± 0.037 kg/m3 and 154.768 ± 0.037 kg/m3
460 K, 11420 kPa	218.352 ± 0.048 kg/m3 [middle of 8 runs]
460.01 K, 687.74 kPa	8.1493 ± 0.0033 kg/m3
460.01 K, 687.75 kPa	8.1496 ± 0.0033 kg/m3 and 8.1495 ± 0.0033 kg/m3
460.01 K, 1046.4 kPa	12.5877 ± 0.0038 kg/m3
460.01 K, 1046.6 kPa	12.591 ± 0.0038 kg/m3
460.01 K, 4978.7 kPa	72.2625 ± 0.012 kg/m3
460.01 K, 4978.8 kPa	72.2648 ± 0.012 kg/m3
460.01 K, 4978.9 kPa	72.2665 ± 0.012 kg/m3 [middle of 4 runs]
460.01 K, 8434.9 kPa	147.459 ± 0.036 kg/m3
460.01 K, 8435 kPa	147.46 ± 0.036 kg/m3
460.01 K, 8435.1 kPa	147.462 ± 0.036 kg/m3 and 147.464 ± 0.036 kg/m3 and 147.461 ± 0.036 kg/m3
460.01 K, 8435.2 kPa	147.464 ± 0.036 kg/m3 and 147.463 ± 0.036 kg/m3 and 147.466 ± 0.036 kg/m3
480 K, 716.12 kPa	8.1077 ± 0.0033 kg/m3
480 K, 716.13 kPa	8.1078 ± 0.0033 kg/m3 and 8.1079 ± 0.0033 kg/m3 and 8.108 ± 0.0033 kg/m3
480 K, 1038.1 kPa	11.8882 ± 0.0037 kg/m3
480 K, 1924.9 kPa	22.769 ± 0.018 kg/m3 and 22.7696 ± 0.018 kg/m3
480 K, 1925 kPa	22.771 ± 0.018 kg/m3
480 K, 1925.1 kPa	22.7716 ± 0.018 kg/m3 and 22.7708 ± 0.018 kg/m3
480 K, 3069 kPa	37.9021 ± 0.021 kg/m3
480 K, 3069.2 kPa	37.9044 ± 0.021 kg/m3 and 37.905 ± 0.021 kg/m3
480 K, 3069.5 kPa	37.9086 ± 0.021 kg/m3
480 K, 3069.6 kPa	37.9115 ± 0.021 kg/m3
480 K, 4376.6 kPa	56.9392 ± 0.01 kg/m3
480 K, 4376.8 kPa	56.9424 ± 0.01 kg/m3
480 K, 4377.1 kPa	56.9487 ± 0.01 kg/m3
480 K, 4377.2 kPa	56.9487 ± 0.01 kg/m3
480 K, 4377.6 kPa	56.955 ± 0.01 kg/m3
480 K, 5340.5 kPa	72.2831 ± 0.012 kg/m3 and 72.2827 ± 0.012 kg/m3
480 K, 5340.6 kPa	72.285 ± 0.012 kg/m3
480 K, 6880.9 kPa	99.2607 ± 0.016 kg/m3 and 99.2626 ± 0.016 kg/m3
480 K, 6881 kPa	99.2628 ± 0.016 kg/m3
480 K, 9330.8 kPa	147.276 ± 0.033 kg/m3 and 147.278 ± 0.033 kg/m3
480 K, 9330.9 kPa	147.278 ± 0.033 kg/m3 and 147.275 ± 0.033 kg/m3
480 K, 9331 kPa	147.279 ± 0.033 kg/m3
480 K, 9343.8 kPa	147.548 ± 0.022 kg/m3
480 K, 9343.9 kPa	147.549 ± 0.022 kg/m3 and 147.552 ± 0.022 kg/m3
480 K, 9344 kPa	147.551 ± 0.022 kg/m3
480 K, 9344.1 kPa	147.55 ± 0.022 kg/m3
480 K, 9689.8 kPa	154.575 ± 0.034 kg/m3
480 K, 9690 kPa	154.576 ± 0.034 kg/m3
480 K, 9690.1 kPa	154.579 ± 0.034 kg/m3
480 K, 9690.2 kPa	154.581 ± 0.034 kg/m3 and 154.58 ± 0.034 kg/m3
480 K, 13007 kPa	218.012 ± 0.041 kg/m3 and 218.013 ± 0.041 kg/m3 and 218.014 ± 0.041 kg/m3
480.01 K, 399.65 kPa	4.4746 ± 0.0029 kg/m3 and 4.4747 ± 0.0029 kg/m3 and 4.4744 ± 0.0029 kg/m3
480.01 K, 1038.8 kPa	11.899 ± 0.0037 kg/m3
480.01 K, 1039.1 kPa	11.9024 ± 0.0037 kg/m3
480.01 K, 1039.3 kPa	11.9056 ± 0.0037 kg/m3
480.01 K, 1041.9 kPa	11.9354 ± 0.0037 kg/m3
480.01 K, 5340.5 kPa	72.2834 ± 0.012 kg/m3 and 72.2836 ± 0.012 kg/m3
480.01 K, 5340.6 kPa	72.2841 ± 0.012 kg/m3 and 72.2848 ± 0.012 kg/m3 and 72.2843 ± 0.012 kg/m3
480.01 K, 6880.9 kPa	99.2609 ± 0.016 kg/m3 and 99.2601 ± 0.016 kg/m3
480.01 K, 9330.9 kPa	147.277 ± 0.033 kg/m3
480.01 K, 9331 kPa	147.28 ± 0.033 kg/m3 and 147.281 ± 0.033 kg/m3
480.01 K, 13007 kPa	218.014 ± 0.041 kg/m3
480.01 K, 13008 kPa	218.016 ± 0.041 kg/m3
500 K, 415.04 kPa	4.4539 ± 0.0029 kg/m3 and 4.454 ± 0.0029 kg/m3
500 K, 415.05 kPa	4.454 ± 0.0029 kg/m3
500 K, 744.3 kPa	8.0688 ± 0.0033 kg/m3
500 K, 744.34 kPa	8.0689 ± 0.0033 kg/m3
500 K, 1058.4 kPa	11.5875 ± 0.0037 kg/m3 and 11.5868 ± 0.0037 kg/m3
500 K, 2016.7 kPa	22.7375 ± 0.018 kg/m3
500 K, 2016.8 kPa	22.7381 ± 0.018 kg/m3
500 K, 2016.9 kPa	22.7385 ± 0.018 kg/m3
500 K, 2017 kPa	22.7394 ± 0.018 kg/m3
500 K, 3242.8 kPa	37.9947 ± 0.019 kg/m3
500 K, 3243.6 kPa	38.0051 ± 0.019 kg/m3
500 K, 3243.7 kPa	38.0059 ± 0.019 kg/m3 and 38.0062 ± 0.019 kg/m3
500 K, 3243.9 kPa	38.0086 ± 0.019 kg/m3
500 K, 4643.7 kPa	56.9284 ± 0.01 kg/m3
500 K, 4644 kPa	56.9317 ± 0.01 kg/m3
500 K, 4644.4 kPa	56.9376 ± 0.01 kg/m3
500 K, 4644.5 kPa	56.9398 ± 0.01 kg/m3
500 K, 4644.6 kPa	56.941 ± 0.01 kg/m3
500 K, 7408.7 kPa	99.2014 ± 0.016 kg/m3 and 99.1992 ± 0.016 kg/m3
500 K, 7408.8 kPa	99.1996 ± 0.016 kg/m3 and 99.1999 ± 0.016 kg/m3
500 K, 10218 kPa	147.109 ± 0.031 kg/m3 and 147.114 ± 0.031 kg/m3
500 K, 10219 kPa	147.115 ± 0.031 kg/m3
500 K, 10234 kPa	147.392 ± 0.022 kg/m3 and 147.391 ± 0.022 kg/m3 and 147.393 ± 0.022 kg/m3
500 K, 10637 kPa	154.378 ± 0.032 kg/m3 [middle of 5 runs]
500 K, 14582 kPa	217.649 ± 0.038 kg/m3 and 217.645 ± 0.038 kg/m3 and 217.644 ± 0.038 kg/m3
500 K, 14583 kPa	217.649 ± 0.038 kg/m3
500.01 K, 415.04 kPa	4.4539 ± 0.0029 kg/m3
500.01 K, 744.34 kPa	8.069 ± 0.0033 kg/m3
500.01 K, 744.35 kPa	8.069 ± 0.0033 kg/m3
500.01 K, 1058.3 kPa	11.5848 ± 0.0037 kg/m3
500.01 K, 1058.7 kPa	11.5888 ± 0.0037 kg/m3
500.01 K, 1059.3 kPa	11.5965 ± 0.0037 kg/m3
500.01 K, 5697.7 kPa	72.2794 ± 0.012 kg/m3 and 72.2805 ± 0.012 kg/m3 and 72.2784 ± 0.012 kg/m3
500.01 K, 5697.8 kPa	72.2813 ± 0.012 kg/m3 [middle of 4 runs]
500.01 K, 5697.9 kPa	72.2822 ± 0.012 kg/m3
500.01 K, 10218 kPa	147.112 ± 0.031 kg/m3 and 147.116 ± 0.031 kg/m3
500.01 K, 10219 kPa	147.118 ± 0.031 kg/m3 and 147.116 ± 0.031 kg/m3
500.01 K, 14582 kPa	217.641 ± 0.038 kg/m3 and 217.644 ± 0.038 kg/m3
500.01 K, 14583 kPa	217.647 ± 0.038 kg/m3

— the NIST ThermoML archive (doi:10.1021/je900124n)
